Literature values, collected in US20230364032A1, “USE OF 2-HOBA TO TREAT ATHEROSCLEROSIS” (Vanderbilt University, priority 2020, published 2023).
Read-outs that look alike come from different tables or passages of the source.

Assays:
Apoe−/− mice = conditions: cited from earlier work; for effect on atherosclerotic lesions: streptozotocin-treated Apoe−/− mice
IL-1β = target: T1, IL-1β (Homo sapiens, UniProt P01584); conditions: humans with prior MI and elevated hsCRP; cited from earlier work
T1 construct: host or cells: patients of a clinical trial (endogenous protein)

N=C(N)NN [aminoguanidine]
effect on atherosclerotic lesions (Apoe−/− mice): reduce atherosclerotic lesions

Cc1c(C)c2c(c(C)c1O)CC[C@@](C)(CCC[C@H](C)CCC[C@H](C)CCCC(C)C)O2 [alpha tocopherol]
effect on atherosclerosis (Apoe−/− mice; Apoe−/− mice): reduces
effect on urine F2-IsoP levels (Apoe−/− mice; Apoe−/− mice): reduces

canakinumab: an IL-1β neutralizing monoclonal antibody
cardiovascular event rates (IL-1β): reduce cardiovascular event rates

NCCC(=O)N[C@@H](Cc1cnc[nH]1)C(=O)O [carnosine]
effect on atherosclerosis (Apoe−/− mice; Apoe−/− mice or streptozotocin-treated Apoe−/− mice): reduce atherosclerosis

Cc1ncc(CO)c(CN)c1O [pyridoxamine]
effect on atherosclerotic lesions (Apoe−/− mice): reduce atherosclerotic lesions
